Source: patent publication US12116343B2, “Inhibitors of APOL1 and methods of using same” (Vertex Pharmaceuticals Incorporated, priority 2020, dated 2024)
pIC50: −log10 of the molar value. Like-named read-outs stand apart in the source and are kept apart here.

Biological target: T1, G1 APOL1 (Homo sapiens, UniProt O14791, I384M/S342G)
T1 construct: expressed in transfected cells
T1 sequence (O14791 28-398 S342G/I384M): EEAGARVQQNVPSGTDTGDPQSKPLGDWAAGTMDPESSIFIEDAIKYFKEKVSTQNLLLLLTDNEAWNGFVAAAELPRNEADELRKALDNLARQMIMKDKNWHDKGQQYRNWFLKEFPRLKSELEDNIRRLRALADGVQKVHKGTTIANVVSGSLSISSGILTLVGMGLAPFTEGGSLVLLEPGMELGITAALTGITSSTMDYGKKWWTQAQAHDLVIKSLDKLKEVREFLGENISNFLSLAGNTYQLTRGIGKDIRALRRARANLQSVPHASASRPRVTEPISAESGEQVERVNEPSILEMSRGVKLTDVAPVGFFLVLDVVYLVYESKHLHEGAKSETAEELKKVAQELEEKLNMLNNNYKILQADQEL
Assay: Acute APOL1 Thallium Assay with inducible stable clones of HEK 293 cells
Type: cell-based
Settings: read-out: Thallium Assay (IC50)
How it was run: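 Tetracycline-inducible HEK293 T-Rex clone G1 DC3.25 expressing G1 APOL1, plated at 26000 cells/well in Opti-MEM with tetracycline induction. APOL1 pore activity read on FLIPR as fluorescence increase from Tl+ influx into cells loaded with a Tl+-sensitive AM-ester dye.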

[1] = HEK 293 T-Rex cells expressing G1 APOL1

| pIC50 [1] | pIC50 (Table 24, Compounds 287 to 465) | SMILES |
| --- | --- | --- |
| 6.00 to 6.60 |  | Cc1ccn(CCNC(=O)[C@H]2C[C@@H](c3c(-c4ccc(F)cc4)[nH]c4c(F)cc(F)cc43)C2)n1 [Compound 263] |
|  | 6.00 to 6.60 | C[C@@H](CO)NC(=O)O[C@H]1C[C@H](c2c(-c3ccc(F)cc3)[nH]c3c(F)cc(F)cc32)C1 [Compound 357] |
|  | 6.00 to 6.60 | O=C(NCc1cnco1)O[C@H]1C[C@H](c2c(-c3ccc(F)cc3)[nH]c3c(F)cc(F)cc32)C1 [Compound 353] |
|  | < 6.00 | C[C@H](NCC1CC(c2c(-c3ccc(F)cc3)[nH]c3c(F)cc(F)cc23)C1)C(N)=O (stereo partly drawn) [Compound 439] |
|  | 6.00 to 6.60 | O=C(NCC(F)F)O[C@H]1C[C@H](c2c(-c3ccc(F)cc3)[nH]c3c(F)cc(F)cc32)C1 [Compound 351] |
|  | < 6.00 | NC(=O)CNC1CC(c2c(-c3ccc(F)cc3)[nH]c3c(F)cc(F)cc23)C1 (stereo not drawn) [Compound 288, 2-[[3-[5,7-difluoro-2-(4-fluorophenyl)-1H-indol-3-yl]cyclobutyl]amino]acetamide] |
|  | < 6.00 | CC(C)(NCC1CC(c2c(-c3ccc(F)cc3)[nH]c3c(F)cc(F)cc23)C1)C(=O)NCC(F)(F)F (stereo not drawn) [Compound 442] |
|  | < 6.00 | CC1(C)CC(C)(NC(=O)NC[C@H]2C[C@H](c3c(-c4ccc(F)cc4)[nH]c4c(F)cc(F)cc43)C2)C(=O)O1 (mixture of isomers) [Compound 392] |
|  | < 6.00 | O=C(N[C@H](CO)C(F)(F)F)O[C@H]1C[C@H](c2c(-c3ccc(F)cc3)[nH]c3c(F)cc(F)cc32)C1 [Compound 362] |
|  | 6.00 to 6.60 | CN(C)C(=O)CNCC1CC(c2c(-c3ccc(F)cc3)[nH]c3c(F)cc(F)cc23)C1 (stereo not drawn) [Compound 435] |
|  | < 6.00 | O=C(NC[C@H]1CC[C@@H](CO)O1)NC[C@H]1C[C@H](c2c(-c3ccc(F)cc3)[nH]c3c(F)cc(F)cc32)C1 [Compound 422] |
| < 6.00 |  | Cn1nccc1CNC(=O)[C@H]1C[C@@H](c2c(-c3ccc(F)cc3)[nH]c3c(F)cc(F)cc32)C1 [Compound 265] |
|  | < 6.00 | C[C@]1(NC(=O)NC[C@H]2C[C@H](c3c(-c4ccc(F)cc4)[nH]c4c(F)cc(F)cc43)C2)C[C@@H](O)C1 [Compound 408] |
|  | < 6.00 | CC1(NC(=O)NC[C@H]2C[C@H](c3c(-c4ccc(F)cc4)[nH]c4c(F)cc(F)cc43)C2)CCNC1=O (mixture of isomers) [Compound 426] |
|  | < 6.00 | CCC(O)CNC(=O)O[C@H]1C[C@H](c2c(-c3ccc(F)cc3)[nH]c3c(F)cc(F)cc32)C1 (stereo partly drawn) [Compound 388] |
|  | 6.00 to 6.60 | NC(=O)CNC(=O)O[C@H]1C[C@H](c2c(-c3ccc(F)cc3)[nH]c3c(F)cc(F)cc32)C1 [Compound 355] |
| > 6.60 |  | CC1(C(=O)NC2(CO)CC2)CC(c2c(-c3ccc(F)cc3)[nH]c3c(F)cc(F)cc23)C1 (mixture of isomers) [Compound 281] |
|  | < 6.00 | CC(C)(C)[C@H](CO)NC(=O)NC[C@H]1C[C@H](c2c(-c3ccc(F)cc3)[nH]c3c(F)cc(F)cc32)C1 [Compound 416] |
|  | < 6.00 | CC1CC(NC(=O)NC[C@H]2C[C@H](c3c(-c4ccc(F)cc4)[nH]c4c(F)cc(F)cc43)C2)C(=O)O1 (stereo partly drawn) [Compound 395] |
|  | 6.00 to 6.60 | O=C(NCCO)O[C@H]1C[C@H](c2c(-c3ccc(F)cc3)[nH]c3c(F)cc(F)cc32)C1 [Compound 350] |
|  | < 6.00 | CC1(NC(=O)C2CC(Cc3c(-c4ccc(F)cc4)[nH]c4c(F)cc(F)cc34)C2)CCOC1 (mixture of isomers) [Compound 334] |
|  | < 6.00 | CC(C)C[C@@H](CO)NC(=O)C1CC(Cc2c(-c3ccc(F)cc3)[nH]c3c(F)cc(F)cc23)C1 (stereo partly drawn) [Compound 347] |
| < 6.00 |  | Cn1cnc(CNC(=O)[C@H]2C[C@@H](c3c(-c4ccc(F)cc4)[nH]c4c(F)cc(F)cc43)C2)c1 [Compound 261] |
|  | < 6.00 | C[C@H](CO)N(C)C(=O)NC[C@H]1C[C@H](c2c(-c3ccc(F)cc3)[nH]c3c(F)cc(F)cc32)C1 [Compound 404] |
|  | < 6.00 | CC(CO)N(C)C(=O)NC[C@H]1C[C@H](c2c(-c3ccc(F)cc3)[nH]c3c(F)cc(F)cc32)C1 (mixture of isomers) [Compound 412] |
|  | < 6.00 | CC(O)C(C)NC(=O)O[C@H]1C[C@H](c2c(-c3ccc(F)cc3)[nH]c3c(F)cc(F)cc32)C1 (mixture of isomers) [Compound 363] |
|  | < 6.00 | CN(CC1CC(c2c(-c3ccc(F)cc3)[nH]c3c(F)cc(F)cc23)C1)C(=O)NCCO (stereo not drawn) [Compound 431] |

| pIC50 [1] | pIC50 (Table 24, Compounds 287 to 465) | SMILES |
| --- | --- | --- |
|  | 6.00 to 6.60 | O=C(NCC(F)F)N1CC(c2c(-c3ccc(F)cc3)[nH]c3c(F)cc(F)cc23)C1 [Compound 465, 3-(5,7-difluoro-2-(4-fluorophenyl)-1H-indol-3-yl)-N-(2,2-difluoroethyl)azetidine-1-carboxamide] |
|  | < 6.00 | O=C(NC[C@@H](O)C(F)(F)F)NC[C@H]1C[C@H](c2c(-c3ccc(F)cc3)[nH]c3c(F)cc(F)cc32)C1 [Compound 424] |
|  | < 6.00 | O=C(NCCO)NC[C@H]1C[C@H](c2c(-c3ccc(F)cc3)[nH]c3c(F)cc(F)cc32)C1 [Compound 393] |
|  | < 6.00 | O=C(NC[C@H]1C[C@H](c2c(-c3ccc(F)cc3)[nH]c3c(F)cc(F)cc32)C1)N[C@H]1CC[C@@H]1O [Compound 402] |
|  | < 6.00 | COCC1(CNC(=O)C2CC(Cc3c(-c4ccc(F)cc4)[nH]c4c(F)cc(F)cc34)C2)CC1 (stereo not drawn) [Compound 319] |
| < 6.00 |  | CC(O)[C@H](CO)NC(=O)[C@H]1C[C@@H](c2c(-c3ccc(F)cc3)[nH]c3c(F)cc(F)cc32)C1 (stereo partly drawn) [Compound 270] |
|  | < 6.00 | COC[C@H](C)NC(=O)O[C@H]1C[C@H](c2c(-c3ccc(F)cc3)[nH]c3c(F)cc(F)cc32)C1 [Compound 364] |
| < 6.00 |  | C[C@@H](O)CNC(=O)[C@H]1C[C@@H](c2c(-c3ccc(F)cc3)[nH]c3c(F)cc(F)cc32)C1 [Compound 258] |
|  | > 6.60 | CNC(=O)CNC[C@H]1C[C@H](c2c(-c3ccc(F)cc3)[nH]c3c(F)cc(F)cc32)C1 [Compound 446] |
|  | < 6.00 | C[C@H](CO)NC(=O)C1CCC(c2c(-c3ccc(F)cc3)[nH]c3c(F)cc(F)cc23)C1 (stereo partly drawn) [Compound 463, 3-[5,7-difluoro-2-(4-fluorophenyl)-1H-indol-3-yl]-N-[(1R)-2-hydroxy-1-methyl-ethyl]cyclopentanecarboxamide] |
|  | < 6.00 | C[C@@H](O)CNC(=O)NC[C@H]1C[C@H](c2c(-c3ccc(F)cc3)[nH]c3c(F)cc(F)cc32)C1 [Compound 407] |
|  | < 6.00 | C[C@@H](O)[C@@H](CO)NC(=O)O[C@H]1C[C@H](c2c(-c3ccc(F)cc3)[nH]c3c(F)cc(F)cc32)C1 [Compound 372] |
|  | < 6.00 | O=C(NCC(O)CO)O[C@H]1C[C@H](c2c(-c3ccc(F)cc3)[nH]c3c(F)cc(F)cc32)C1 (stereo partly drawn) [Compound 367] |
|  | < 6.00 | COC1(CNC(=O)C2CC(Cc3c(-c4ccc(F)cc4)[nH]c4c(F)cc(F)cc34)C2)CCOC1 (stereo not drawn) [Compound 343] |
|  | < 6.00 | Cn1cncc1CNC(=O)C1CC(Cc2c(-c3ccc(F)cc3)[nH]c3c(F)cc(F)cc23)C1 (stereo not drawn) [Compound 344] |
|  | < 6.00 | O=C(NCC1CC1)O[C@H]1C[C@H](c2c(-c3ccc(F)cc3)[nH]c3c(F)cc(F)cc32)C1 [Compound 370] |
|  | < 6.00 | C[C@@H](NCC1CC(c2c(-c3ccc(F)cc3)[nH]c3c(F)cc(F)cc23)C1)C(=O)N(C)C (stereo partly drawn) [Compound 438] |
| < 6.00 |  | O=C1NCCC1NC(=O)[C@H]1C[C@@H](c2c(-c3ccc(F)cc3)[nH]c3c(F)cc(F)cc32)C1 (stereo partly drawn) [Compound 268] |
|  | 6.00 to 6.60 | O=C(NC1CC1)O[C@H]1C[C@H](c2c(-c3ccc(F)cc3)[nH]c3c(F)cc(F)cc32)C1 [Compound 358] |
| > 6.60 |  | O=C1NC[C@@H](O)[C@@H]1NC(=O)[C@H]1C[C@H](c2c(-c3ccc(F)cc3)[nH]c3c(F)cc(F)cc32)C1 [Compound 229] |
|  | < 6.00 | C[C@@H](CO)NC(=O)NC[C@H]1C[C@H](c2c(-c3ccc(F)cc3)[nH]c3c(F)cc(F)cc32)C1 [Compound 414] |
|  | < 6.00 | O=C(N[C@H]1CCOC1=O)C1CC(Cc2c(-c3ccc(F)cc3)[nH]c3c(F)cc(F)cc23)C1 (stereo partly drawn) [Compound 305] |
|  | < 6.00 | O=C1CC(CNC(=O)C2CC(Cc3c(-c4ccc(F)cc4)[nH]c4c(F)cc(F)cc34)C2)CN1 (stereo not drawn) [Compound 336] |
| 6.00 to 6.60 |  | CC1(C(=O)N[C@H]2CCNC2=O)CC(c2c(-c3ccc(F)cc3)[nH]c3c(F)cc(F)cc23)C1 (mixture of isomers) [Compound 284] |
|  | < 6.00 | O=C(N[C@H]1CCNC1=O)N[C@H]1C[C@H](c2c(-c3ccc(F)cc3)[nH]c3c(F)cc(F)cc32)C1 [Compound 297] |
| < 6.00 |  | O=C([C@H]1C[C@@H](c2c(-c3ccc(F)cc3)[nH]c3c(F)cc(F)cc32)C1)N1C[C@@H](O)[C@H](O)C1 [Compound 274] |
| < 6.00 |  | CC(C)CC(NC(=O)[C@H]1C[C@@H](c2c(-c3ccc(F)cc3)[nH]c3c(F)cc(F)cc32)C1)C(N)=O (stereo partly drawn) [Compound 255] |
